Source: the supplement of paper PMC11451515

Tested on: NOMO1
Assay: cell viability relative to DMSO control; higher = less cytotoxic
Settings: 48 h
Method in brief: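 Viability was expressed as a per-plate percentage of DMSO wells, with cell-free wells as background. Leukemia cells (NOMO1 or SEM at 500 cells/well, P12-Ichikawa at 1000 cells/well) were adapted for at least four passages in each medium and seeded in 1536-well plates (5 μl). Library compounds in DMSO were pin-dosed over an 11-point threefold series from 47 μM to 0.79 nM, and CellTiter-Glo One luminescence was read after 48 h at 37°C.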

[1] = HPLM + 10% dialyzed FBS, 0.000781 µM
[2] = HPLM + 10% dialyzed FBS, 0.00234 µM
[3] = HPLM + 10% dialyzed FBS, 0.00702 µM
[4] = HPLM + 10% dialyzed FBS, 0.0211 µM
[5] = HPLM + 10% dialyzed FBS, 0.0632 µM
[6] = HPLM + 10% dialyzed FBS, 0.19 µM
[7] = HPLM + 10% dialyzed FBS, 0.569 µM
[8] = HPLM + 10% dialyzed FBS, 1.71 µM
[9] = HPLM + 10% dialyzed FBS, 5.12 µM
[10] = HPLM + 10% dialyzed FBS, 15.4 µM
[11] = HPLM + 10% dialyzed FBS, 46.1 µM
[12] = RPMI 5 mM glucose + 10% FBS, 0.000781 µM
[13] = RPMI 5 mM glucose + 10% FBS, 0.00234 µM
[14] = RPMI 5 mM glucose + 10% FBS, 0.00702 µM
[15] = RPMI 5 mM glucose + 10% FBS, 0.0211 µM
[16] = RPMI 5 mM glucose + 10% FBS, 0.0632 µM
[17] = RPMI 5 mM glucose + 10% FBS, 0.19 µM
[18] = RPMI 5 mM glucose + 10% FBS, 0.569 µM
[19] = RPMI 5 mM glucose + 10% FBS, 1.71 µM
[20] = RPMI 5 mM glucose + 10% FBS, 5.12 µM
[21] = RPMI 5 mM glucose + 10% FBS, 15.4 µM
[22] = RPMI 5 mM glucose + 10% FBS, 46.1 µM
[23] = RPMI 5 mM glucose + 10% dialyzed FBS, 0.000781 µM
[24] = RPMI 5 mM glucose + 10% dialyzed FBS, 0.00234 µM
[25] = RPMI 5 mM glucose + 10% dialyzed FBS, 0.00702 µM
[26] = RPMI 5 mM glucose + 10% dialyzed FBS, 0.0211 µM
[27] = RPMI 5 mM glucose + 10% dialyzed FBS, 0.0632 µM
[28] = RPMI 5 mM glucose + 10% dialyzed FBS, 0.19 µM
[29] = RPMI 5 mM glucose + 10% dialyzed FBS, 0.569 µM
[30] = RPMI 5 mM glucose + 10% dialyzed FBS, 1.71 µM
[31] = RPMI 5 mM glucose + 10% dialyzed FBS, 5.12 µM
[32] = RPMI 5 mM glucose + 10% dialyzed FBS, 15.4 µM
[33] = RPMI 5 mM glucose + 10% dialyzed FBS, 46.1 µM

## Nc1nnc(-c2cccc(Cl)c2Cl)c(N)n1
[1]
  cell viability: 95.9%
[2]
  cell viability: 89.7%
[3]
  cell viability: 97.6%
[4]
  cell viability: 33%
[5]
  cell viability: 107%
[6]
  cell viability: 113%
[7]
  cell viability: 112%
[8]
  cell viability: 98.9%
[9]
  cell viability: 121%
[10]
  cell viability: 108%
[11]
  cell viability: 115%
[12]
  cell viability: 89.2%
[13]
  cell viability: 86.6%
[14]
  cell viability: 93.5%
[15]
  cell viability: 23.7%
[16]
  cell viability: 112%
[17]
  cell viability: 96.5%
[18]
  cell viability: 88.4%
[19]
  cell viability: 96.1%
[20]
  cell viability: 102%
[21]
  cell viability: 95.2%
[22]
  cell viability: 102%
[23]
  cell viability: 76%
[24]
  cell viability: 89.2%
[25]
  cell viability: 94%
[26]
  cell viability: 43.7%
[27]
  cell viability: 96.2%
[28]
  cell viability: 93.1%
[29]
  cell viability: 99%
[30]
  cell viability: 108%
[31]
  cell viability: 103%
[32]
  cell viability: 98.6%
[33]
  cell viability: 99.1%

## O=C(O)CCn1c2c(c3ccccc31)C[C@H](N[S+](=O)([O-])c1ccc(F)cc1)CC2
[1]
  cell viability: 115%
[2]
  cell viability: 112%
[3]
  cell viability: 120%
[4]
  cell viability: 124%
[5]
  cell viability: 113%
[6]
  cell viability: 109%
[7]
  cell viability: 104%
[8]
  cell viability: 105%
[9]
  cell viability: 116%
[10]
  cell viability: 88.3%
[11]
  cell viability: 72.2%
[12]
  cell viability: 102%
[13]
  cell viability: 105%
[14]
  cell viability: 108%
[15]
  cell viability: 98.2%
[16]
  cell viability: 114%
[17]
  cell viability: 99%
[18]
  cell viability: 99.2%
[19]
  cell viability: 98.7%
[20]
  cell viability: 94.2%
[21]
  cell viability: 102%
[22]
  cell viability: 90.5%
[23]
  cell viability: 99.2%
[24]
  cell viability: 107%
[25]
  cell viability: 120%
[26]
  cell viability: 102%
[27]
  cell viability: 95.8%
[28]
  cell viability: 102%
[29]
  cell viability: 109%
[30]
  cell viability: 98.1%
[31]
  cell viability: 103%
[32]
  cell viability: 91.8%
[33]
  cell viability: 85.9%

## COC/1=C/C=C2\C(=C/C1=O)[C@H](CCC3=CC(=C(OC)C(=C23)OC)OC)NC(C)=O
[1]
  cell viability: 36.2%
[2]
  cell viability: 33.8%
[3]
  cell viability: 45.9%
[4]
  cell viability: 49.8%
[5]
  cell viability: 40.4%
[6]
  cell viability: 27%
[7]
  cell viability: 30.5%
[8]
  cell viability: 25.3%
[9]
  cell viability: 19.8%
[10]
  cell viability: 20%
[11]
  cell viability: 10.6%
[12]
  cell viability: 23.7%
[13]
  cell viability: 20%
[14]
  cell viability: 17.1%
[15]
  cell viability: 20.2%
[16]
  cell viability: 21.5%
[17]
  cell viability: 24.3%
[18]
  cell viability: 17.9%
[19]
  cell viability: 7.99%
[20]
  cell viability: 12.5%
[21]
  cell viability: 10.8%
[22]
  cell viability: 2.76%
[23]
  cell viability: 23.7%
[24]
  cell viability: 21.5%
[25]
  cell viability: 23.3%
[26]
  cell viability: 29.1%
[27]
  cell viability: 24.9%
[28]
  cell viability: 21.3%
[29]
  cell viability: 23.5%
[30]
  cell viability: 13.1%
[31]
  cell viability: 14.3%
[32]
  cell viability: 12.8%
[33]
  cell viability: 3.31%

## CCCCC(C=O)NC(=O)C(CC(C)C)NC(=O)OCc1ccccc1 (stereo unspecified)
[1]
  cell viability: 104%
[2]
  cell viability: 98.5%
[3]
  cell viability: 86.4%
[4]
  cell viability: 94.7%
[5]
  cell viability: 85.5%
[6]
  cell viability: 83%
[7]
  cell viability: 92.2%
[8]
  cell viability: 82.7%
[9]
  cell viability: 89.4%
[10]
  cell viability: 82%
[11]
  cell viability: 55.9%
[12]
  cell viability: 91.8%
[13]
  cell viability: 93.3%
[14]
  cell viability: 90.1%
[15]
  cell viability: 102%
[16]
  cell viability: 93.7%
[17]
  cell viability: 88.9%
[18]
  cell viability: 85.4%
[19]
  cell viability: 72.7%
[20]
  cell viability: 80.2%
[21]
  cell viability: 68.6%
[22]
  cell viability: 77.6%
[23]
  cell viability: 103%
[24]
  cell viability: 93.3%
[25]
  cell viability: 95.1%
[26]
  cell viability: 97.4%
[27]
  cell viability: 101%
[28]
  cell viability: 83.9%
[29]
  cell viability: 90.4%
[30]
  cell viability: 82.2%
[31]
  cell viability: 77.6%
[32]
  cell viability: 80.9%
[33]
  cell viability: 70.1%

## Cc1cc(Nc2nc(N[C@@H](C)c3ccc(F)cc3)c(C#N)cc2F)n[nH]1
[1]
  cell viability: 108%
[2]
  cell viability: 101%
[3]
  cell viability: 109%
[4]
  cell viability: 113%
[5]
  cell viability: 93.9%
[6]
  cell viability: 99.9%
[7]
  cell viability: 114%
[8]
  cell viability: 92.3%
[9]
  cell viability: 36.4%
[10]
  cell viability: 68.8%
[11]
  cell viability: 58.6%
[12]
  cell viability: 88.9%
[13]
  cell viability: 94.7%
[14]
  cell viability: 91.2%
[15]
  cell viability: 99.2%
[16]
  cell viability: 90.9%
[17]
  cell viability: 81.2%
[18]
  cell viability: 89.5%
[19]
  cell viability: 83%
[20]
  cell viability: 20.7%
[21]
  cell viability: 36.1%
[22]
  cell viability: 45.5%
[23]
  cell viability: 79.8%
[24]
  cell viability: 104%
[25]
  cell viability: 104%
[26]
  cell viability: 103%
[27]
  cell viability: 96.8%
[28]
  cell viability: 97.5%
[29]
  cell viability: 98.7%
[30]
  cell viability: 91.1%
[31]
  cell viability: 28.3%
[32]
  cell viability: 36.1%
[33]
  cell viability: 55%

## OC(=O)C(CC/1=C/C(=O)NC2=CC=CC=C12)NC(=O)C3=CC=C(Cl)C=C3 (stereo unspecified)
[1]
  cell viability: 95.6%
[2]
  cell viability: 117%
[3]
  cell viability: 136%
[4]
  cell viability: 121%
[5]
  cell viability: 130%
[6]
  cell viability: 121%
[7]
  cell viability: 131%
[8]
  cell viability: 122%
[9]
  cell viability: 131%
[10]
  cell viability: 136%
[11]
  cell viability: 110%
[12]
  cell viability: 121%
[13]
  cell viability: 122%
[14]
  cell viability: 121%
[15]
  cell viability: 134%
[16]
  cell viability: 132%
[17]
  cell viability: 127%
[18]
  cell viability: 140%
[19]
  cell viability: 155%
[20]
  cell viability: 137%
[21]
  cell viability: 135%
[22]
  cell viability: 134%
[23]
  cell viability: 114%
[24]
  cell viability: 125%
[25]
  cell viability: 147%
[26]
  cell viability: 127%
[27]
  cell viability: 139%
[28]
  cell viability: 137%
[29]
  cell viability: 136%
[30]
  cell viability: 135%
[31]
  cell viability: 134%
[32]
  cell viability: 132%
[33]
  cell viability: 143%

## Cc1csc(NC(=O)c2sc3nc4c(c(C(F)(F)F)c3c2N)CCC4)n1
[1]
  cell viability: 91.6%
[2]
  cell viability: 102%
[3]
  cell viability: 97.9%
[4]
  cell viability: 101%
[5]
  cell viability: 96.7%
[6]
  cell viability: 96.4%
[7]
  cell viability: 99.4%
[8]
  cell viability: 91.4%
[9]
  cell viability: 94%
[10]
  cell viability: 79.6%
[11]
  cell viability: 77.6%
[12]
  cell viability: 81.7%
[13]
  cell viability: 94.4%
[14]
  cell viability: 92.3%
[15]
  cell viability: 87.4%
[16]
  cell viability: 90.6%
[17]
  cell viability: 86%
[18]
  cell viability: 91.7%
[19]
  cell viability: 88.1%
[20]
  cell viability: 87.2%
[21]
  cell viability: 78.3%
[22]
  cell viability: 85.5%
[23]
  cell viability: 83.5%
[24]
  cell viability: 91.2%
[25]
  cell viability: 93%
[26]
  cell viability: 93.1%
[27]
  cell viability: 91.3%
[28]
  cell viability: 89.4%
[29]
  cell viability: 91%
[30]
  cell viability: 97.9%
[31]
  cell viability: 96.3%
[32]
  cell viability: 95.3%
[33]
  cell viability: 89.7%
